Laboratory results taken from US20240285630A1, “Methods and compositions for improving exercise performance” (MEZZION PHARMA CO., LTD., priority 2021, published 2024).

Experiments:
[1] = tested on: adolescents with Fontan physiology; experiment: FUEL Trial serum brain-type natriuretic peptide (BNP) level; type: in vivo, human; conditions: ANCOVA; listed as udenafil
Source text: Baseline clinical testing completed before drug initiation included a blood draw to measure brain-type natriuretic peptide (BNP) level, a cardiopulmonary exercise test (CPET) using a standardized cycle ergometer ramp protocol, a standardized echocardiogram, and an assessment of peripheral vascular function using peripheral arterial tonometry (PAT) measured by finger cuff (EndoPAT; Itamar Medical, Israel). Participants who achieved maximal effort, defined as respiratory exchange ratio (RER)≥1.10 at peak exercise during CPET, were eligible for randomization and study drug initiation. […] End-of-study clinical testing included repeat measurement of serum BNP, CPET, echocardiogram, and PAT.

[2] = tested on: adolescents with Fontan physiology; experiment: FUEL Trial safety, adverse event reports; type: in vivo, human
Source text: The primary outcome was the change in oxygen consumption at peak exercise (max or peak VO2) from baseline to the 26-week visit. Secondary exercise outcomes included change in additional measures at maximal exertion, as well as change in measures of submaximal exercise at the ventilatory anaerobic threshold (VAT). The primary outcome for clinical secondary aims included change in myocardial performance index (MPI), an echocardiographically-derived measure of systolic and diastolic ventricular function, change in log-transformed reactive hyperemia index (InRHI), a PAT-derived measure of peripheral vascular function, and change in log-transformed serum BNP level. Safety was monitored through adverse event reports, which were collected according to a pre-specified protocol of study coordinator outreach, and through ad hoc patient and family communication with members of the study team at each site.
The primary outcome for clinical secondary aims included the between group differences in change in myocardial performance index (MPI), an echocardiographically-derived measure of systolic and diastolic ventricular function, change in log-transformed reactive hyperemia index (InRHI), a PAT-derived measure of peripheral vascular function, and change in log-transformed serum BNP level. Measurements for each of these secondary outcomes were performed at core labs. Safety was monitored through adverse event reports, which were collected according to a pre-specified protocol of study coordinator outreach, and through ad hoc patient and family communication with members of the study team at each site.
A sample size of 200 participants per arm was chosen to allow for 90% power to detect a mean treatment difference in change from baseline to 26-week testing in peak VO2 of 10% with a type 1 error of 0.05. We assumed a baseline standard deviation of 7.235 ml/kg/min, a correlation between peak VO2 measurements of 0.33, a drop-out and incomplete testing rate of 10%, and failure to reach maximal effort at the 26-week exercise testing in 15% of participants. These assumptions were based on historical data and reflect a conservative approach to assessing within-participant correlations and failure to reach maximal effort and the analysis was performed using a two-sample, independent means t-test. The primary analysis used the intention-to-treat population to evaluate the difference in the change in the primary outcome between treatment arms. This difference was assessed with an analysis of covariance (ANCOVA) with fixed factors for ventricular morphology (single left versus single right or mixed) and treatment group, with a continuous covariate of baseline peak VO2. For those without data at the 26-week visit, this value was imputed as equal to the baseline value (no change). The alpha level was set at 0.05 with two-sided testing. All statistical analyses were performed using SAS statistical software 9.4 (SAS Institute, Inc., Cary, North Carolina). Secondary analyses included participants who successfully completed the protocol with measurable values at each of the secondary endpoints. Secondary outcomes of continuous data points were analyzed in the manner described for the primary outcome. In order to assess the generalizability of findings at the ventilatory anaerobic threshold, demographic and clinical characteristics were compared between participants without paired VO2 at VAT data and those comprising the remainder of the cohort using the Student's t-test and Fisher's exact test. Fisher's exact test was used to compare adverse events between the udenafil and placebo cohorts.

CCCOc1ccc(S(=O)(=O)NCCC2CCCN2C)cc1-c1nc2c(CCC)nn(C)c2c(=O)[nH]1 (centres unmarked) [Udenafil, udenafil]
Log brain natriuretic peptide, difference LS Mean (SE), udenafil vs placebo [1]: not different between groups
Dizziness, % of participants ([2]; human, in vivo, 26 weeks): (8.0) %
Dizziness, number of participants ([2]; human, in vivo, 26 weeks): 16
Epistaxis, % of participants ([2]; human, in vivo, 26 weeks): (10.5) %
Epistaxis, number of participants ([2]; human, in vivo, 26 weeks): 21
Flushing, % of participants ([2]; human, in vivo, 26 weeks): (16.0) %
Flushing, number of participants ([2]; human, in vivo, 26 weeks): 32
Headache, % of participants ([2]; human, in vivo, 26 weeks): (39.5) %
Headache, number of participants ([2]; human, in vivo, 26 weeks): 79
Nausea/vomiting, % of participants ([2]; human, in vivo, 26 weeks): (15.5) %
Nausea/vomiting, number of participants ([2]; human, in vivo, 26 weeks): 31
Participants who experienced a serious adverse event ([2]; human, in vivo, 26 weeks): 14
Serious adverse events with possible, probable, or definite relationship to study drug ([2]; human, in vivo, 26 weeks): 3
Priapism ([2]; in vivo): no reported episodes of priapism
Increased erection, % of male participants ([2]; male, human, in vivo, 26 weeks): (11.7) %
Increased erection, number of participants ([2]; male, human, in vivo, 26 weeks): 13
Deaths ([2]; study cohort): no deaths
